Biological target: T1, FGFR2 (Homo sapiens, UniProt P21802)
T1 construct: purchased Thermo Fisher Scientific (Life Technologies) SelectScreen
Experiment: SelectScreen Z'LYTE
Type: biochemical
Method in brief: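 NU5455 was profiled across the SelectScreen Broad panel of kinase activity and binding assays. Z'LYTE reactions such as CSF1R ran at apparent Km ATP, while the Adapta CAMK1 assay used ATP listed as 10. Values are given as percent.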

T1 sequence (P21802 22-821): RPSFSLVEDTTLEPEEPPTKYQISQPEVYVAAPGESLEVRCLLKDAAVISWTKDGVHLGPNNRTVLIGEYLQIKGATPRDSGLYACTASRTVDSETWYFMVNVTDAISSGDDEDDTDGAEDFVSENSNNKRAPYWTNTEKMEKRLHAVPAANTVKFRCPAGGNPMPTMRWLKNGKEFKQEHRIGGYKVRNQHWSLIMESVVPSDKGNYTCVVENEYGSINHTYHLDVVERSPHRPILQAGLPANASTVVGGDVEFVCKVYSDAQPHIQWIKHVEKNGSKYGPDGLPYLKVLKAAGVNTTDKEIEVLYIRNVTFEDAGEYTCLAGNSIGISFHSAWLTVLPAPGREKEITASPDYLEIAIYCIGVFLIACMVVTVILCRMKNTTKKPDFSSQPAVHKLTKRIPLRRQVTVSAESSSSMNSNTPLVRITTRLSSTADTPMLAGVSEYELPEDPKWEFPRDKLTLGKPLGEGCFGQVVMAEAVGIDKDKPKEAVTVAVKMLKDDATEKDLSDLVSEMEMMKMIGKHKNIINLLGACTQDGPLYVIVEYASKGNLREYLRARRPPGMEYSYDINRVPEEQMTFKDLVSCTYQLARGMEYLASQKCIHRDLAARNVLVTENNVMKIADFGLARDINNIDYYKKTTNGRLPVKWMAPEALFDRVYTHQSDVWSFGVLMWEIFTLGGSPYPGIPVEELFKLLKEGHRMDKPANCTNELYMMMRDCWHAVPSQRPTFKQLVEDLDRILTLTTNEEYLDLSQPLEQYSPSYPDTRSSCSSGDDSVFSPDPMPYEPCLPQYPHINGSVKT

For `CN(C(=O)CN1CCOCC1)c1ccc2sc3c(-c4cccc5c(=O)cc(N6CC7CCC(C6)O7)oc45)cccc3c2c1` [NU5455], the inhibition at 1 µM was 0%.
